Assays:
[1] = test system: Pseudomonas aeruginosa (Immunotype 1); experiment: In vivo protection against Pseudomonas aeruginosa infection in cyclophosphamide-immunosuppressed CFl female mice (LD50 / protective index); conditions: CY-treated mice, LD50 (CY + test compound) / LD50 (CY alone); for Protective Index (log): Table 3, Pseudomonas aeruginosa, dose and route not given; for P.I. (log): PA, sub cutaneous
Procedure: (§1) Groups of 15-20 CFl female mice (Charles River Breeding, Cambridge, MA) weighing 22-28 gm were injected intraperitoneally (i.p.) with cyclophosphamide (Cytoxan; CY) at 250 mg per kg body weight. One to two hours later they were typically injected again with the test material by the route specified. Four days later, the mice were divided into groups of five, each of which were injected i.p. with a different dilution of a suspension of Pseudomonas aeruginosa (Immunotype 1). The number of survivors was determined periodically and an estimate was made of the number of CFU of Pseudomonas organisms necessary to cause 50% lethality by the cumulative method of L. J. Reed and H. Muench (Am. J. Hygeine 27 (1938) 493-497). A protective index (P.I.) was defined as the LD50 for the mice receiving cyclophosphamide and the test compound divided by the LD50 for the mice receiving cyclophosphamide alone. All control mice were injected with aqueous vehicle in the same route and schedule as the test animals.
(§2) All compounds for dosing were suspended in a sterile medium referred to as "aqueous vehicle" which contains 0.9% sodium chloride, 0.5% carboxymethyl cellulose, 0.4% Tween 80, and 0.9% benzyl alcohol unless otherwise stated. Test materials were evaluated via subcutaneous (s.c.), i.p., intramuscular (i.m.), orally (p.o.). and intravenous (i.v.) routes of administration. The initial test dose was 40 mg per kg per mouse, with each active compound subsequently titrated below this level.
(§3) All bacteria were inoculated i.p. to induce infection in the in vivo experiments. Candida albicans, however, was administered i.v. Bacteria cultures were harvested in the log phase, washed with phosphate buffered saline (PBS, and resuspended in PBS containing 10% glycerol for freezing at -70° C. in 1 ml aliquots. The number of […] (cfu's) was determined before and after freezing. Frozen cultures were routinely thawed and diluted in sterile PBS just prior to inoculation. Viable cell counts were routinely done on thawed cultures the day of challenge to determine the number of cfu's. Candida albicans was stored in distilled water at room temperature. Viable cell counts were determined the day of testing.
(§4) The testing and results of 6-(5-cholesten-3β-yloxy)hexyl-1-thio-β-D-mannopyranoside (Example 2) against various orgaisms is shown in Table 2.

Staphylococcus aureus = experiment: In vivo protection against Staphylococcus aureus infection in cyclophosphamide-immunosuppressed mice (LD50 / protective index); conditions: SA, CY-treated mice, sub cutaneous, LD50 (CY + test compound) / LD50 (CY alone)
Procedure: as §1, §2, §3, §4

Candida albicans = experiment: In vivo protection against Candida albicans infection in cyclophosphamide-immunosuppressed mice (LD50 / protective index); conditions: CA i.v., CY-treated mice, sub cutaneous, LD50 (CY + test compound) / LD50 (CY alone)
Procedure: as §1
All compounds for dosing were suspended in a sterile medium referred to as "aqueous vehicle" which contains 0.9% sodium chloride, 0.5% carboxymethyl cellulose, 0.4% Tween 80, and 0.9% benzyl alcohol unless otherwise stated. Test materials were evaluated via subcutaneous (s.c.), i.p., intramuscular (i.m.), orally (p.o.). and intravenous (i.v.) routes of administration. […]
as §3, with “testing. […]” for “testing.”

## CC(C)CCC[C@@H](C)[C@H]1CC[C@H]2[C@@H]3CC=C4C[C@@H](OCCCCCCS[C@H]5O[C@H](CO)[C@@H](O)[C@H](O)[C@@H]5O)CC[C@]4(C)[C@H]3CC[C@]12C [Example 1, 6-(5-Cholesten-3β-yloxy)hexyl 1-thio-α-D-mannopyranoside]
[1]
  Protective Index (log): 1.5 log

## CC(C)CCC[C@@H](C)[C@H]1CC[C@H]2[C@@H]3CC=C4C[C@@H](OCCCCCCS[C@@H]5O[C@H](CO)[C@@H](O)[C@H](O)[C@@H]5O)CC[C@]4(C)[C@H]3CC[C@]12C [Example 2, 6-(5-Cholesten-3β-yloxy)hexyl 1-thio-β-D-mannopyranoside]
Staphylococcus aureus; 5 mg/kg
  P.I. (log): 0.99 log
Staphylococcus aureus; 10 mg/kg
  P.I. (log): 1.47 log
Staphylococcus aureus; 20 mg/kg
  P.I. (log): 1.83 log
Staphylococcus aureus; 40 mg/kg
  P.I. (log): 2.66 log
Candida albicans; 10 mg/kg
  P.I. (log): 0.67 log
Candida albicans; 20 mg/kg
  P.I. (log): 0.81 log
Candida albicans; 40 mg/kg
  P.I. (log): 1 log
[1]; 10 mg/kg
  P.I. (log): 2.75 log
[1]; 20 mg/kg
  P.I. (log): 3.75 log
[1]; 40 mg/kg
  P.I. (log): 4.33 log
[1]; 80 mg/kg
  P.I. (log): 4.66 log
[1]
  Protective Index (log): 4.5 log

## CC(C)CCC[C@@H](C)[C@H]1CC[C@H]2[C@@H]3CC=C4C[C@@H](OCCCCCCS[C@@H]5O[C@@H](C)[C@@H](O)[C@@H](O)[C@@H]5O)CC[C@]4(C)[C@H]3CC[C@]12C [Example 3, 6-(5-Cholesten-3β-yloxy)hexyl 1-thio-α-L-fucopyranoside]
[1]
  Protective Index (log): 2.8 log

## CC(C)CCC[C@@H](C)[C@H]1CC[C@H]2[C@@H]3CC=C4C[C@@H](OCCCCCCS[C@H]5O[C@@H](C)[C@@H](O)[C@@H](O)[C@@H]5O)CC[C@]4(C)[C@H]3CC[C@]12C [Example 4, 6-(5-Cholesten-3β-yloxy)hexyl 1-thio-β-L-fucopyranoside]
[1]
  Protective Index (log): 1.3 log

## CC(C)CCC[C@@H](C)[C@H]1CC[C@H]2[C@@H]3CC=C4C[C@@H](OCCOCCS[C@@H]5O[C@H](CO)[C@@H](O)[C@H](O)[C@@H]5O)CC[C@]4(C)[C@H]3CC[C@]12C [Example 5, 2-(2-(5-Cholesten-3β-yloxy)ethoxy)ethyl 1-thio-β-D-mannopyranoside]
[1]
  Protective Index (log): 1.7 log

## CC[C@H](C=C[C@@H](C)[C@H]1CC[C@H]2[C@@H]3CC=C4C[C@@H](OCCCCCCS[C@@H]5O[C@H](CO)[C@@H](O)[C@H](O)[C@@H]5O)CC[C@]4(C)[C@H]3CC[C@]12C)C(C)C [Example 6, 6-(Stigmasta-5,22-dien-3β-yloxy)hexyl 1-thio-β-D-mannopyranoside]
[1]
  Protective Index (log): 2.0 log

## CC(=O)[C@H]1CC[C@H]2[C@@H]3CC=C4C[C@@H](OCCCCCCS[C@@H]5O[C@H](CO)[C@@H](O)[C@H](O)[C@@H]5O)CC[C@]4(C)[C@H]3CC[C@]12C [Example 7, 6-(Pregn-5-en-20-one-3β-yloxy)hexyl 1-thio-βD-mannopyranoside]
[1]
  Protective Index (log): 3.5 log

## COC(=O)[C@H]1CC[C@H]2[C@@H]3CC=C4C[C@@H](OCCCCCCS[C@@H]5O[C@H](CO)[C@@H](O)[C@H](O)[C@@H]5O)CC[C@]4(C)[C@H]3CC[C@]12C [Example 8, 6-(17β-Carbomethoxy-androst-5-en-3β-yloxy)hexyl 1-thio-β-D-mannopyranoside]
[1]
  Protective Index (log): 2.5 log

## C[C@]12CC[C@H]3[C@@H](CC=C4C[C@@H](OCCCCCCS[C@@H]5O[C@H](CO)[C@@H](O)[C@H](O)[C@@H]5O)CC[C@@]43C)[C@@H]1CC[C@@H]2C(N)=O [Example 9, 6-(17β-Carbamido-androst-5-en-3β-yloxy)hexyl 1-thio-β-D-mannopyranoside]
[1]
  Protective Index (log): 2.5 log

## CC(O)[C@H]1CC[C@H]2[C@@H]3CC=C4C[C@@H](OCCCCCCS[C@@H]5O[C@H](CO)[C@@H](O)[C@H](O)[C@@H]5O)CC[C@]4(C)[C@H]3CC[C@]12C (stereo partly drawn) [Example 10, 6-(Pregn-5-en-20-ol-3β-yloxy)hexyl 1-thio-β-D-mannopyranoside]
[1]
  Protective Index (log): 1.3 log

## CC(=O)N[C@@H](C)[C@H]1CC[C@H]2[C@@H]3CC=C4C[C@@H](OCCCCCCS[C@@H]5O[C@H](CO)[C@@H](O)[C@H](O)[C@@H]5O)CC[C@]4(C)[C@H]3CC[C@]12C [Example 11, 6-(20S-Acetamido-pregn-5-en-3β-yloxy)hexyl 1-thio-β-D-mannopyranoside]
[1]
  Protective Index (log): 3.0 log

## CC(=O)N[C@H](C)[C@H]1CC[C@H]2[C@@H]3CC=C4C[C@@H](OCCCCCCS[C@@H]5O[C@H](CO)[C@@H](O)[C@H](O)[C@@H]5O)CC[C@]4(C)[C@H]3CC[C@]12C [Example 12, 6-(20R-Acetamido-pregn-5-en-3β-yloxy)hexyl 1-thio-β-D-mannopyranoside]
[1]
  Protective Index (log): 2.6 log
